# Literature values as cited in patent US6476071B1, “Correcting polymorphic metabolic dysfunction with (−)-hydroxycitric acid” (priority 2001, dated 2002).
# How the values were obtained:
# [1] = tested on: rats; details: after a three hour meal
# [2] = tested on: animals; details: 70% glucose diet, as long as 80 days
structure (smiles),measurement,setting,value
O=C([O-])CC(O)(C(=O)[O-])C(O)C(=O)[O-].[Na+].[Na+].[Na+] (stereo not drawn) [trisodium salt of (−)-hydroxycitric acid],"contents of the stomach, % of control",[1],223 % of control
same,contents of the stomach,[1]; controls 884±145,1973±154 dpm×10^3
same,body weight after disappearance of appetite control,[2],maintained a reduced weight
